Values joined by “and” are separate entries in the source; they are usually repeats but may differ in a detail not shown here. Equal values may be shown once.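 1) Cells in 96-well plates. 2) Compound, 48 h, 5 concentrations. 3) Linear interpolation between surrounding doses. 4) Unreached endpoint = highest concentration. Abbreviation: GI50, concentration required for 50% inhibition of growth. TGI denotes the concentration required for complete inhibition of growth.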

Test systems include DMS 273 small cell lung; KM20L2 colon; SNB-78 CNS; XF 498 CNS; RXF-631 renal; DMS 114 small cell lung; M19-MEL melanoma; MDA-N; NCI/ADR-RES ovarian.
Common to all, as to test: growth of human tumour cells (NCI), 48 h

For `COc1ccc(CCc2cc(OC)c(O)c(OC)c2)cc1`, the TGI with DMS 273 small cell lung, with KM20L2 colon, in the assay on SNB-78 CNS, in the assay on XF 498 CNS, in the assay with RXF-631 renal and in the assay on DMS 114 small cell lung was greater than 100 µM throughout. Further, the TGI in the assay with M19-MEL melanoma was greater than 100 µM.

For `Nc1ccc(Sc2c3ccccc3nc3ccccc23)cc1`, the TGI with DMS 273 small cell lung worked out at 28.8 µM; in the assay on KM20L2 colon it was 33.1 µM; in the assay on SNB-78 CNS, 53.3 µM; in the assay with XF 498 CNS it was 28 µM; in the assay with MDA-N it was 38.5 µM; with DMS 114 small cell lung, 38 µM. Also, the TGI in the assay with NCI/ADR-RES ovarian was found to be 36 µM; with M19-MEL melanoma it was 47.9 µM.

Regarding `COC(=O)C(=O)C(C(=O)C(=O)Nc1cc(C)ccc1C)c1nc2ccc(C(=O)c3ccccc3)cc2[nH]c1=O` (stereo unspecified), the TGI in the assay with DMS 273 small cell lung, in the assay with KM20L2 colon, in the assay with SNB-78 CNS, in the assay on RXF-631 renal, in the assay with DMS 114 small cell lung and with M19-MEL melanoma was greater than 100 µM in each case.

With `O=C1C2C3C=CC(C2C(=O)N1CN1CCSCC1)C1C2C(=O)N(CN4CCSCC4)C(=O)C2C31` (stereo unspecified), the TGI was greater than 61.4 µM in the assay on DMS 273 small cell lung; greater than 100 µM with KM20L2 colon; greater than 100 µM in the assay with SNB-78 CNS; greater than 100 µM with XF 498 CNS; greater than 100 µM in the assay on RXF-631 renal; greater than 56.1 µM in the assay on DMS 114 small cell lung. Moreover, in the assay with M19-MEL melanoma, the TGI was greater than 100 µM.

`COC(=O)/C(=N\NC(N)=O)C(C(=O)C=C(C)C)C(=O)C(=O)Nc1ccc(Cl)c(Cl)c1` (stereo unspecified): the TGI in the assay with DMS 273 small cell lung, in the assay on KM20L2 colon, in the assay on SNB-78 CNS, in the assay with XF 498 CNS, in the assay on RXF-631 renal and in the assay with DMS 114 small cell lung was greater than 100 µM in each case. Besides, in the assay on M19-MEL melanoma, the TGI was greater than 100 µM.

Turning to `Cc1ccc2nc(NC(=O)/C(=N\NC(=S)NN)C3C(=O)NC(=S)NC3=O)sc2c1`, the TGI in the assay on DMS 273 small cell lung, with KM20L2 colon, in the assay on SNB-78 CNS, with XF 498 CNS and in the assay on RXF-631 renal was greater than 100 µM throughout.

As for `CCOC(=O)C(C(O)c1ccc([N+](=O)[O-])cc1)P(=O)(OCC)OCC` (stereo unspecified), the TGI in the assay with DMS 273 small cell lung, in the assay on KM20L2 colon, in the assay on XF 498 CNS, in the assay with RXF-631 renal and in the assay on M19-MEL melanoma was greater than 100 µM throughout.

Turning to `C=C(CCCO)[C@@H]1CC[C@@](C)(O)[C@H]1C`, the TGI in the assay on DMS 273 small cell lung, in the assay on KM20L2 colon, in the assay with SNB-78 CNS, in the assay on XF 498 CNS, in the assay on RXF-631 renal and in the assay on DMS 114 small cell lung was greater than 100 µM in each case. This compound came in with a TGI in the assay on M19-MEL melanoma greater than 100 µM.

For the compound `CCOC(=O)C(=O)Nc1ccccc1C(C)C`, the TGI with DMS 273 small cell lung, with KM20L2 colon, with XF 498 CNS, with RXF-631 renal, with DMS 114 small cell lung and in the assay on M19-MEL melanoma was greater than 100 µM throughout.

Consider `C/C(=N\NC(=O)CC(=O)N(C(=O)c1ccc(Cl)cc1)c1ccc(C)cc1)c1ccccc1O`, for which the TGI with DMS 273 small cell lung, with KM20L2 colon, in the assay with SNB-78 CNS, in the assay on XF 498 CNS, with RXF-631 renal and in the assay on DMS 114 small cell lung was greater than 100 µM throughout. The TGI in the assay with M19-MEL melanoma is greater than 100 µM.

In the case of `CCN(CC)CCNc1ccc2nc(C)n3c4ccc(O)cc4c(=O)c1c23`, the TGI stood at 3.15 µM with DMS 273 small cell lung, 7.51 µM in the assay with RXF-631 renal, 10.4 µM with DMS 114 small cell lung and 16.8 µM in the assay on M19-MEL melanoma.

`Cc1ccccc1C1CC(c2ccccc2)=NO1` (stereo unspecified): the TGI with DMS 273 small cell lung, in the assay with KM20L2 colon, in the assay on SNB-78 CNS, in the assay with RXF-631 renal and in the assay with DMS 114 small cell lung was greater than 100 µM in each case.

As to `c1ccc(N/N=C2\NN=C(c3ccccc3)CS2)cc1`, the TGI in the assay on KM20L2 colon stood at 22.8 µM; in the assay with SNB-78 CNS it was 34.2 µM; in the assay with RXF-631 renal it was 35.8 µM.

Turning to `CCOP1(=O)C=C(C)C(=C(Cl)Cl)C(C)=C1` (stereo unspecified), the figures for the GI50 in the assay on KM20L2 colon, in the assay on RXF-631 renal and in the assay on M19-MEL melanoma were 4.53 µM, 20.4 µM and 12.9 µM, respectively. Moreover, the TGI in the assay with KM20L2 colon was 6.76 µM and 65.3 µM; in the assay on XF 498 CNS it was 35.7 µM; in the assay with RXF-631 renal, 64.5 µM; in the assay with M19-MEL melanoma, 36.3 µM.

On to `c1ccc2c(NCCCCCCNc3cccc4ccccc34)cccc2c1`, for which the TGI in the assay on DMS 273 small cell lung, with KM20L2 colon, with SNB-78 CNS, in the assay with XF 498 CNS, with RXF-631 renal and in the assay with DMS 114 small cell lung was greater than 100 µM in each case. Also, the TGI in the assay on M19-MEL melanoma was greater than 100 µM.

As to `Cn1cnc([N+](=O)[O-])c1Sc1nccc(=O)[nH]1`, the TGI in the assay on DMS 273 small cell lung, in the assay with SNB-78 CNS, in the assay on XF 498 CNS, with RXF-631 renal, with DMS 114 small cell lung and in the assay on M19-MEL melanoma was greater than 100 µM each time.

Take `COc1cc(/C=C2/C(=O)N(C(=O)OCc3ccccc3)C(Cc3cc(OC)c(OC)c(C)c3OC)C(=O)N2Cc2ccccc2)c(OC)c(C)c1OC` (stereo unspecified): the TGI with DMS 273 small cell lung, in the assay with KM20L2 colon, in the assay on RXF-631 renal, in the assay with DMS 114 small cell lung and in the assay on M19-MEL melanoma was greater than 100 µM throughout.

Turning to `CC1CC[P+](c2ccccc2)(c2ccccc2)CC1`, the TGI in the assay on DMS 273 small cell lung was greater than 100 µM; in the assay with KM20L2 colon, greater than 100 µM; with SNB-78 CNS, greater than 100 µM; with XF 498 CNS it was 77.4 µM; in the assay on DMS 114 small cell lung, greater than 100 µM; with M19-MEL melanoma it was greater than 100 µM.

In the case of `COC[C@H](C)N=CN1CCc2ccccc2C1(Cc1ccccc1)Cc1ccccc1`, the TGI with KM20L2 colon amounted to 24.7 µM; in the assay on XF 498 CNS, 24.8 µM; in the assay with RXF-631 renal it was 34.9 µM.

The values are drawn from PubChem BioAssay (NCI).
